Source: US5204373A, “Farnesylated tetrahydro-naphthalenols as hypolipidemic agents” (Bristol-Myers Squibb Company, priority 1991, dated 1993)

Key:
[1] = test system: 6-week old male chickens; experiment: In vivo lipid metabolism evaluation in normocholesterolemic chickens (serum cholesterol pools); set-up: species or system chicken; settings: test compound 50 ppm in corn-soybean diet for four weeks; for LDL Cholesterol: control 62.7 ± 2.5; for HDL Cholesterol: control 99.9 ± 1.9; for Total Cholesterol: fasted 36 h, refed 48 h, control 183.0 ± 4.5
Protocol: Serum cholesterol, triglycerides, low density and high density liproprotein cholesterol as determined in drug treated birds.
(§1) Newborn male chicks (8 for each group) were raised on a standard corn-soybean based control diet for two weeks and then switched to either control or experimental diets for four weeks. Drug treatment consisted of the addition of test compounds to the corn-soybean-based diet at a concentration of 50 ppm. At the end of the feeding period, all the birds were fasted (36 hours) and refed (48 hours) to induce cholesterolgenic enzymes prior to sacrifice. The specific activity of HMGR, total serum cholesterol levels, LDL cholesterol and HDL cholesterol pools were determined using previously described methods (Qureshi et al., J. Biol. Chem., 261, 10544 (1986)) (Table 1).

[2] = test system: β-Hydroxy-β-Methylglutaryl Coenzyme A Reductase (HMGR); experiment: Ex vivo HMGR suppression in the liver of drug dosed chickens; set-up: species or system chicken; settings: test compound 50 ppm in diet for four weeks, control 33.8
Protocol: β-Hydroxy-β-Methylglutaryl Coenzyme A Reductase (HMGR) activity in the liver of drug dosed chickens.
as §1

[3] = test system: LDL; experiment: LDL antioxidant assay (conjugated diene formation); format: biochemical, rabbit; settings: for LR (end of lag phase of LDL oxidation) vs control: whole rabbit plasma incubated with drug, LDL isolated, time of first derivative maximum of conjugated diene kinetic curve
Protocol: Inhibition of LDL oxidation as measured by conjugated diene formation.
Whole rabbit plasma was incubated with either vehicle or drug, and the LDL was isolated by ultracentrifugation. EDTA was removed by dialysis and analysis of co-dependent LDL oxidation was determined by conjugated diene formation using the protocol established by Esterbauer et al., (Free Radical Res. Commun. 6(1), 75-75 (1989)). The time of the first derivative maximum in the kinetic curves, corresponding to the end of the lag phase (LR) of the reaction, indicates both the intrinsic effectiveness of the antioxidant combined with its local concentration with in the LDL particles. […] Substitution of methylene for oxygen at position 1 would diminish antioxidant capacity.

| SMILES | LDL Cholesterol [1] | HDL Cholesterol [1] | Total Cholesterol [1] | HMGR (specific activity) [2] | LR (end of lag phase of LDL oxidation) vs control [3] | LDL antioxidation properties (in words) ([3]; rabbit LDL, conjugated diene formation) |
| --- | --- | --- | --- | --- | --- | --- |
| CC(C)=CCC/C(C)=C/CC/C(C)=C/CCC1(C)CCc2cc(O)ccc2O1 (centres unmarked) [Tocotrienol, reference compound] | 42.8 ± 2.8 | 91.7 ± 1.0 | 149.8 ± 4.5 | 13.6 | 2.01 | – |
| CC(C)=CCC/C(C)=C/CC/C(C)=C/CCC1(C)CCc2cc(O)ccc2C1 (centres unmarked) [Compound 12, 5,6,7,8-Tetrahydro-6-Methyl-6-(4,8,12-Trimethyl-3(E), (7E), 11-tridecatrienyl)-2-Naphthalenol] | 28.4 ± 1.3 | 85.3 ± 1.3 | 125.5 ± 3.0 | 14.6 | 1.32 | exhibits LDL antioxidation properties |
